# Experimental data from publication PMC12045974, “T cell toxicity induced by tigecycline binding to the mitochondrial ribosome” (Nature Communications, 2025).
# Several values for one entry are separate records, joined by “and”; a condition that tells them apart may be missing. Equal entries are not always repeated.
# How the values were obtained:
# [1] = tested on: HeLa cells; assay: Cell viability assay (CCK-8), HeLa cells; format: cell-based; details: for cell vialibity normalized to Vehicle (DMSO): in % (unit assumed)
# Protocol: (§1) Cells were seeded in 96-well plates ranging from 2000 to 15,000 cells per well depending on different cell lines and treated with antibiotics in serial dilutions for 72 h (120 h for the preliminary assays) in a humidified incubator (37 °C, 5% CO2) in 100 μl medium (DMEM with 10% FBS, 2.05 mM L-glutamine (Sigma) for Hek293 and Hela; RPMI-1640 with 10% FBS, 2.05 mM L-glutamine (Sigma), and 55 μM 2-ME (Gibco) for Jurkat T cells and PBMCs). Based on preliminary tests, the number of cells per well was optimized to 2000 for Hela and Hek293, 6000 for Jurkat T cells, and 15,000 for PBMCs. The stocks of antibiotics were prepared by dissolving in DMSO. As control, the same amount of DMSO was added to the non-treated groups. Serial drug dilutions were prepared in the corresponding medium to provide a total of 9 concentrations up to 300 μM for tetracyclines and up to 900 μM for additional bacterial protein synthesis inhibitors. After drug treatment, 10% CCK-8 (Cell Counting Kit-8, Sigma Aldrich) (10 μl per well) of the total volume was added to the cells and incubated for 1–4 h depending on cell lines (1 h for Hela and Hek293; 3 h for Jurkat T cells; 4 h for PBMCs) before the evaluation of the effect of antibiotics on cell viability. […] Results were visually confirmed under the light microscope. Each treatment was performed in technical repeats. Dose-response curves were plotted, mean ± SEM was shown, and half maximal inhibitory concentration (IC50) values were calculated in GraphPad Prism.
# [2] = tested on: mitochondrial translation in CD4+ and CD8+ T cells; assay: Mito-FUNCAT-FACS assay of mitochondrial translation on activated T cells; format: cell-based, human; details: per PBMC donor, listed as Pos ctrl
# Protocol: Thawed PBMCs were washed with RPMI ( + 10% FBS, 2.05 mM L-glutamine (Sigma), and 55 μM 2-ME (Gibco)) before resting at 37 °C (5% CO2) for 30 min. After counting, cells were resuspended in FACS buffer at a density of 5 × 10^7 cells/ml. T cells were isolated using EasySep™ Human T Cell Isolation Kit (Stemcell Technologies). Purified T cells were counted and 85,000 cells per well seeded onto 96-well U-bottom plates with/without Human T-Activator CD3/CD28 beads (Invitrogen) at a 1:2.8 cell:bead ratio and 10 ng/ml IL-2 (Proteintech) in RPMI-1640 ( + 10% FBS, 2.05 mM L-glutamine (Sigma), and 55 μM 2-ME (Gibco)) for 48 h. To assess mitochondrial translation, activated T cells were washed twice with methionine/cysteine/pyruvate-free DMEM and incubated in methionine-depletion medium (DMEM supplemented with 10% dialyzed FBS, 1× GlutaMAX, 1× sodium pyruvate, and 0.2 mM L-cystine) for 30 min at 37 °C. To inhibit cytosolic translation, anisomycin (100 μg/mL) was added to the medium. For mitochondrial translation inhibition, 100 µg/mL chloramphenicol (309 μM, positive control) or tigecycline (2.5−10 μM) were added to the medium. Cells were then labeled with 50 μM L-homopropargylglycine (HPG) for 3 h at 37 °C, during which time the medium still contained antibiotics.
# Following HPG labeling, cells were collected and stained with surface markers (CD4, CD8). Cells were pre-permeabilized with 0.005% digitonin in mitochondria-protective buffer (10 mM HEPES/KOH, 10 mM NaCl, 5 mM MgCl2, 300 mM sucrose, pH 7.5) for 3 min, fixed with 4% paraformaldehyde for 10 min, and fully permeabilized with 0.25% Triton X-100 for 5 min. After blocking with 5% BSA for 10 min, incorporated HPG was detected via copper-catalyzed cycloaddition using 0.05 μM Alexa Fluor 488 picolyl azide (Click-iT™ Plus Alexa Fluor™ 488 Picolyl Azide Toolkit, Gibco) for 30 min at room temperature. Subsequently, the reaction cocktail was removed and cells resuspended in FACS buffer. Flow cytometry was carried out on a BD Celesta (BD Biosciences) and analyzed in FlowJo (TreeStar). Data are presented as fold change relative to negative controls.
# [3] = tested on: Jurkat T cells; assay: Cell viability assay (CCK-8), Jurkat T cells; format: cell-based, human; details: for cell vialibity normalized to Vehicle (DMSO): in % (unit assumed)
# Protocol: as §1
smiles,measurement,setting,value
"O=C(N[C@H](CO)[C@H](O)c1ccc([N+](=O)[O-])cc1)C(Cl)Cl [Chloramphenicol, chloramphenicol]",cell vialibity normalized to Vehicle (DMSO),"[1]; Hela 3d, dose 1 μM",115.472 and 112.907 and 109.149 and 106.395 and 107.336
same,cell vialibity normalized to Vehicle (DMSO),"[1]; Hela 3d, dose 5 μM",99.7977 and 98.9686 and 95.4348 and 95.1889 and 93.3131
same,cell vialibity normalized to Vehicle (DMSO),"[1]; Hela 3d, dose 10 μM",85.1565 and 78.1239 and 77.2387 and 77.1403 and 78.8686
same,cell vialibity normalized to Vehicle (DMSO),"[1]; Hela 3d, dose 100 μM",10.3486 and 10.3064 and 10.2994 and 10.5805
same,cell vialibity normalized to Vehicle (DMSO),"[1]; Hela 5d, dose 1 μM",101.268 and 103.029 and 103.952 and 106.316 and 104.379
same,cell vialibity normalized to Vehicle (DMSO),"[1]; Hela 5d, dose 5 μM",96.435 and 103.217 and 108.966 and 107.207 and 102.082
same,cell vialibity normalized to Vehicle (DMSO),"[1]; Hela 5d, dose 10 μM",98.7408 and 101.357 and 94.3137 and 101.415 and 97.4373
same,cell vialibity normalized to Vehicle (DMSO),"[1]; Hela 5d, dose 50 μM",38.8993 and 53.367 and 28.3728 and 27.4352 and 29.5718
same,cell vialibity normalized to Vehicle (DMSO),"[1]; Hela 5d, dose 100 μM",5.6014 and 6.201 and 5.26 and 4.947 and 5.042
same,IC50,"[1]; Homo sapiens, 120 h, HeLa, after 5 days, read-out: IC50 (cell survival)",41.7 µM
same,mitochondrial translation (fold change relative to negative control),"[2]; CD4, positive control 309 μM",0.3672 and 0.3419 and 0.3517 and 0.3014
same,mitochondrial translation (fold change relative to negative control),"[2]; CD8, positive control 309 μM",0.3783 and 0.3616 and 0.3857 and 0.2719
same,IC50,"[3]; Homo sapiens, 120 h, Jurkat T cells, after 5 days, read-out: IC50 (cell survival)",25.9 µM
same,cell vialibity normalized to Vehicle (DMSO),"[3]; Jurkat 3d, dose 1 μM",91.6279 and 94.5323 and 104.434 and 103.886 and 105.55
same,cell vialibity normalized to Vehicle (DMSO),"[3]; Jurkat 3d, dose 5 μM",74.0465 and 84.1447 and 84.7132 and 88.5271 and 87.2868
same,cell vialibity normalized to Vehicle (DMSO),"[3]; Jurkat 3d, dose 10 μM",63.1628 and 61.0232 and 47.7623 and 47.907 and 61.2196
same,cell vialibity normalized to Vehicle (DMSO),"[3]; Jurkat 3d, dose 50 μM",13.1266 and 12.4444 and 12.0827 and 12.6408 and 12.4548
same,cell vialibity normalized to Vehicle (DMSO),"[3]; Jurkat 3d, dose 100 μM",11.7933 and 11.4419 and 11.2455 and 11.1111 and 11.3282
same,cell vialibity normalized to Vehicle (DMSO),"[3]; Jurkat 5d, dose 1 μM",106.953 and 119.838 and 129.235 and 117.806 and 137.373
same,cell vialibity normalized to Vehicle (DMSO),"[3]; Jurkat 5d, dose 5 μM",116.039 and 104.909 and 120.616 and 122.485 and 146.087
same,cell vialibity normalized to Vehicle (DMSO),"[3]; Jurkat 5d, dose 10 μM",103.365 and 68.172 and 100.846 and 74.0691 and 124.665
same,cell vialibity normalized to Vehicle (DMSO),"[3]; Jurkat 5d, dose 50 μM",10.0745 and 7.603 and 8.334 and 7.062 and 9.025
same,cell vialibity normalized to Vehicle (DMSO),"[3]; Jurkat 5d, dose 100 μM",7.529 and 7.5694 and 7.36 and 6.913 and 8.592
